Experimental data reported in the supplement of paper PMC10307832.

Columns and labels:
Experiment in all cases: relative viability (nuclei count vs DMSO), 5 days (fraction); higher = more cells survive
XMD13-2 + Navitoclax = compound: C1CC1C(=O)NC2=NNC3=C2C=CC(=C3)C4=CC(=CC=C4)C(=O)NC5CC5 [XMD13-2] + CC1(C)CCC(c2ccc(Cl)cc2)=C(CN2CCN(c3ccc(C(=O)NS(=O)(=O)c4ccc(N[C@H](CCN5CCOCC5)CSc5ccccc5)c(S(=O)(=O)C(F)(F)F)c4)cc3)CC2)C1 [Navitoclax] (partner 0.5 µM)
Procedure, shortened: (§1)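 Medians of duplicate plates are given as relative viability. That measure is the nuclei count in treated wells divided by the count in vehicle wells. Counts were taken on 4× images of lung cancer cell lines in 1536-well plates, 5 days after pin-tool dosing the day after seeding with one drug alone or a fixed anchor-drug dose plus five library-drug doses (not always all listed) in √10 steps.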

Dasatinib + Lapatinib = compound: Cc1nc(Nc2ncc(C(=O)Nc3c(C)cccc3Cl)s2)cc(N2CCN(CCO)CC2)n1 [Dasatinib] + CS(=O)(=O)CCNCc1ccc(-c2ccc3ncnc(Nc4ccc(OCc5cccc(F)c5)c(Cl)c4)c3c2)o1 [Lapatinib] (partner 2 µM)
Procedure, shortened: as §1

ALW-II-49-7 + Decitabine = compound: Cc1ccc(C(=O)Nc2cccc(C(F)(F)F)c2)cc1Nc1cncc(C(N)=O)c1 [ALW-II-49-7] + Nc1ncn([C@H]2C[C@H](O)[C@@H](CO)O2)c(=O)n1 [Decitabine] (partner 2 µM)
Procedure, shortened: as §1

XMD13-2 + Tozasertib = compound: C1CC1C(=O)NC2=NNC3=C2C=CC(=C3)C4=CC(=CC=C4)C(=O)NC5CC5 [XMD13-2] + Cc1cc(Nc2cc(N3CCN(C)CC3)nc(Sc3ccc(NC(=O)C4CC4)cc3)n2)n[nH]1 [Tozasertib] (partner 0.1 µM)
Procedure, shortened: as §1

| Cell Line | relative viability (XMD13-2 + Navitoclax; first compound 0.05 µM) | relative viability (XMD13-2 + Navitoclax; first compound 0.1581 µM) | relative viability (XMD13-2 + Navitoclax; first compound 0.5 µM) | relative viability (XMD13-2 + Navitoclax; first compound 1.581 µM) | relative viability (XMD13-2 + Navitoclax; first compound 5 µM) | relative viability (Dasatinib + Lapatinib; first compound 0.005 µM) | relative viability (Dasatinib + Lapatinib; first compound 0.01581 µM) | relative viability (Dasatinib + Lapatinib; first compound 0.05 µM) | relative viability (Dasatinib + Lapatinib; first compound 0.1581 µM) | relative viability (Dasatinib + Lapatinib; first compound 0.5 µM) | relative viability (ALW-II-49-7 + Decitabine; first compound 0.08 µM) | relative viability (ALW-II-49-7 + Decitabine; first compound 0.253 µM) | relative viability (ALW-II-49-7 + Decitabine; first compound 0.8 µM) | relative viability (ALW-II-49-7 + Decitabine; first compound 8 µM) | relative viability (XMD13-2 + Tozasertib; first compound 0.05 µM) | relative viability (XMD13-2 + Tozasertib; first compound 0.1581 µM) | relative viability (XMD13-2 + Tozasertib; first compound 0.5 µM) | relative viability (XMD13-2 + Tozasertib; first compound 1.581 µM) | relative viability (XMD13-2 + Tozasertib; first compound 5 µM) | relative viability (ALW-II-49-7 + Decitabine; first compound 2.53 µM) |
| --- | --- | --- | --- | --- | --- | --- | --- | --- | --- | --- | --- | --- | --- | --- | --- | --- | --- | --- | --- | --- |
| LK-2 | 1.19 | 0.843 | 0.905 | 0.957 | 0.738 | 0.772 | 0.612 | 0.412 | 0.313 | 0.283 | 0.393 | 0.288 | 0.301 | 0.252 | 0.187 | 0.169 | 0.173 | 0.18 | 0.149 | – |
| LOU-NH91 | 0.752 | 0.688 | 0.715 | 0.696 | 0.769 | 0.673 | 0.592 | 0.571 | 0.503 | 0.414 | 0.785 | 0.824 | 0.844 | 0.861 | 0.724 | 0.688 | 0.734 | 0.644 | 0.638 | – |
| LU99A | 0.927 | 0.741 | 0.811 | 0.805 | 0.523 | 0.954 | 0.838 | 0.914 | 0.628 | 0.489 | – | 1.03 | 1 | 1.09 | 0.301 | 0.294 | 0.287 | 0.263 | 0.272 | 0.839 |
| LXF-289 | 0.965 | 0.956 | 0.988 | 0.914 | 0.93 | 0.941 | 1.01 | 0.971 | 0.604 | 0.223 | 0.391 | 0.372 | 0.411 | 0.443 | 0.232 | 0.195 | 0.194 | 0.208 | 0.177 | 0.407 |
| NCI-H23 | 1.02 | 0.767 | 0.822 | 0.78 | 0.82 | 1.01 | 1.09 | 0.911 | 0.539 | 0.764 | 0.311 | 0.286 | 0.303 | 0.333 | 0.325 | 0.382 | 0.397 | 0.644 | 0.355 | 0.328 |
| NCI-H322M | 1.19 | 1.19 | 1.44 | 1.15 | 1.14 | 0.582 | 0.345 | 0.373 | 0.246 | 0.189 | 0.618 | 0.774 | 0.637 | 0.671 | 0.563 | 0.52 | 0.456 | 0.456 | 0.517 | 0.756 |
| NCI-H460 | 1.34 | 1.23 | 1.28 | 1.02 | 1.2 | 1.06 | 0.598 | 0.743 | 0.482 | 0.376 | 0.5 | 0.488 | 0.513 | 0.492 | 0.529 | 0.407 | 0.472 | 0.474 | 0.415 | 0.408 |
| NCI-H520 | 1.17 | 1.2 | 1.08 | 1.01 | 0.501 | 0.729 | 0.447 | 0.464 | 0.228 | 0.21 | 0.559 | 0.472 | 0.497 | 0.561 | 0.495 | 0.491 | 0.515 | 0.395 | 0.462 | 0.531 |
| NCI-H596 | 0.99 | 0.975 | 0.917 | 0.898 | 1.15 | 1.03 | 0.809 | 0.714 | 0.586 | 0.423 | 0.884 | 1.23 | 1.1 | 1.05 | 0.901 | 0.942 | 0.816 | 0.89 | 1.03 | 1.12 |
| NCI-H647 | 1.21 | 1.08 | 1.23 | 1.15 | 0.735 | 0.524 | 0.449 | 0.393 | 0.237 | 0.189 | 0.322 | 0.321 | 0.396 | 0.307 | 0.585 | 0.265 | 0.176 | 0.229 | 0.135 | 0.374 |
| NCI-H727 | 0.462 | 0.362 | 0.372 | 0.374 | 0.3 | 0.588 | 0.667 | 0.581 | 0.37 | 0.277 | 0.775 | 0.884 | 0.738 | 0.703 | 0.577 | 0.652 | 0.666 | 0.617 | 0.627 | 0.824 |
| NCI-H838 | 1.26 | 1.16 | 1.13 | 1.22 | 1.18 | 0.925 | 0.678 | 0.504 | 0.252 | 0.237 | 0.413 | 0.433 | 0.483 | 0.48 | 0.277 | 0.27 | 0.263 | 0.293 | 0.247 | 0.447 |
| NCI-H1355 | 0.971 | 0.941 | 0.904 | 0.899 | 0.89 | 0.988 | 0.902 | 0.898 | 0.704 | 0.49 | 0.329 | 0.366 | 0.391 | 0.376 | 0.64 | 0.631 | 0.638 | 0.548 | 0.589 | 0.436 |
| NCI-H1395 | 1.25 | 1.16 | 1.23 | 1.11 | 1.1 | 0.926 | 0.954 | 0.678 | 0.479 | 0.466 | 0.674 | 0.712 | 0.632 | 0.642 | 0.716 | 0.735 | 0.796 | 0.787 | 0.807 | – |
| NCI-H1437 | 1.12 | 1.09 | 1.09 | 1.05 | 1.09 | 0.785 | 0.784 | 0.809 | 0.752 | 0.218 | 0.551 | 0.553 | 0.594 | 0.644 | 0.427 | 0.438 | 0.411 | 0.395 | 0.404 | 0.624 |
| NCI-H1650 | 1.07 | 1.05 | 0.993 | 1.33 | 1.52 | 0.552 | 0.5 | 0.441 | 0.381 | 0.325 | 0.447 | 0.399 | 0.432 | 0.493 | 0.439 | 0.36 | 0.471 | 0.381 | 0.588 | 0.462 |
| NCI-H1651 | 1.28 | 1.04 | 1 | 1.2 | 0.947 | 0.864 | 0.573 | 0.648 | 0.625 | 0.489 | 0.637 | 0.669 | 0.606 | 0.51 | 0.721 | 0.807 | 0.64 | 0.759 | 0.672 | 0.604 |
| NCI-H1666 | 0.886 | 1.03 | 0.881 | 0.905 | 0.92 | 0.582 | 0.482 | 0.522 | 0.447 | 0.224 | 0.751 | 0.735 | 0.735 | 0.714 | 0.662 | 0.602 | 0.595 | 0.623 | 0.518 | 0.898 |
| NCI-H1734 | 1 | 0.883 | 0.881 | 0.8 | 0.741 | 1.02 | 0.755 | 0.894 | 0.508 | 0.531 | 0.492 | 0.53 | 0.527 | 0.574 | 0.258 | 0.245 | 0.271 | 0.228 | 0.205 | 0.584 |
| NCI-H1755 | 1.03 | 0.985 | 1.07 | 1.01 | 0.986 | 0.957 | 0.714 | 0.749 | 0.622 | 0.246 | 0.66 | 0.726 | 0.719 | 0.719 | 0.664 | 0.575 | 0.498 | 0.543 | 0.494 | 0.756 |
| NCI-H1793 | 0.48 | 0.394 | 0.485 | 0.426 | 0.509 | 0.587 | 0.46 | 0.349 | 0.622 | 0.58 | 0.518 | 0.527 | 0.516 | 0.53 | 0.432 | – | 0.334 | 0.379 | 0.322 | 0.471 |
| NCI-H1915 | 0.801 | 0.781 | 0.806 | 0.835 | 0.853 | 0.939 | 0.892 | 0.87 | 0.382 | 0.242 | 0.257 | 0.294 | 0.261 | 0.264 | 0.48 | 0.488 | 0.48 | 0.412 | 0.335 | 0.262 |
| NCI-H1944 | 1.08 | 1.05 | 1.08 | 1.11 | 1.17 | 0.598 | 0.736 | 0.577 | 0.334 | 0.268 | 0.421 | 0.432 | 0.423 | 0.389 | 0.275 | 0.243 | 0.229 | 0.239 | 0.221 | 0.486 |
| NCI-H1975 | 1.17 | 1.28 | 1.01 | 1.02 | 1.18 | 0.779 | 0.701 | 0.595 | 0.419 | 0.23 | 0.43 | 0.375 | 0.319 | 0.388 | 0.967 | 0.739 | 0.735 | 0.631 | 0.72 | 0.375 |
| NCI-H1993 | 0.911 | 0.834 | 0.884 | 0.845 | 0.673 | 0.761 | 0.771 | 0.776 | 0.731 | 0.737 | 0.591 | 0.567 | 0.603 | 0.587 | 0.627 | 0.529 | 0.565 | 0.615 | 0.545 | 0.576 |
| NCI-H2009 | 1.22 | 1.15 | 1.22 | 1.14 | 1.21 | 1.13 | 1 | 0.96 | 0.305 | 0.151 | 0.326 | 0.446 | 0.368 | 0.467 | 0.849 | 0.7 | 0.798 | 0.728 | 0.749 | 0.438 |
| NCI-H2023 | 1.01 | 1.03 | 0.893 | 0.968 | 1 | 0.584 | 0.703 | 0.742 | 0.758 | 0.64 | 0.226 | 0.214 | 0.255 | 0.347 | 0.524 | 0.34 | 0.372 | 0.281 | 0.309 | 0.249 |
